Converted amounts (≈) assume the structure as drawn. Each block holds one compound with its values, some of them ahead of it.
Tests used:
[1] = Volume of distribution at steady state in rat at 2 mg/kg, iv and 5 mg/kg, po; assay type: ADME, organism-based; settings: in vivo, read-out: Vdss
[2] = Half life in rat; assay type: ADME, organism-based; settings: in vivo
[3] = Thermodynamic solubility of the compound in phosphate buffer at pH 7.4 at 25 degC after 24 hrs; settings: read-out: Therm_solubility
[4] = Clearance in rat at 2 mg/kg, iv; assay type: ADME, organism-based; parameters: dose 2 mg/kg, route intravenous; settings: in vivo
[5] = target: Cytochrome P450 3A4 (Homo sapiens, UniProt P08684); experiment: Inhibition of human CYP3A4; assay type: ADME
[6] = system: Cavia porcellus; experiment: Inhibition of cartilage loss in Dunkin Hartley guinea pig spontaneous osteoarthritis model at 0.06 mg/kg/day, sc after 12 weeks (reference value: 23%); assay type: functional; settings: 2016 h, route subcutaneous
[7] = in vitro; settings: human, liver microsomes
[8] = Oral bioavailability in rat at 3 to 10 mg/kg; assay type: ADME, organism-based; settings: in vivo
[9] = Apparent permeability across basolateral to apical side in human Caco2 cells at 10 uM; assay type: ADME, cell-based; settings: Caco-2
[10] = Volume of distribution at steady state in dog at 0.5 mg/kg, iv and 1 mg/kg, po; assay type: ADME, organism-based, Canis lupus familiaris; settings: in vivo, read-out: Vdss
[11] = Oral bioavailability in rat at 5 mg/kg; assay type: ADME, organism-based; settings: in vivo
[12] = Half life in dog at 0.5 mg/kg, iv and 1 mg/kg, po; assay type: ADME, organism-based, Canis lupus familiaris; settings: in vivo
[13] = Oral bioavailability in dog at 1 mg/kg; assay type: ADME, organism-based, Canis lupus familiaris; settings: in vivo
[14] = in vitro; settings: human, Caco-2
[15] = Clearance in rat at 2 mg/kg, iv and 5 mg/kg, po; assay type: ADME, organism-based; settings: in vivo
[16] = Solubility of compound in fasted state simulated intestinal fluid; assay type: physicochemical
[17] = Clearance in dog at 0.5 mg/kg, iv and 1 mg/kg, po; assay type: ADME, organism-based, Canis lupus familiaris; settings: in vivo
[18] = Half life in rat at 2 mg/kg, iv and 5 mg/kg, po; assay type: ADME, organism-based; settings: in vivo
[19] = Intrinsic clearance in human hepatocytes measured per 10^6 cells; assay type: ADME, cell-based, Hepatocyte; settings: read-out: CLH
[20] = Fraction unbound in dog plasma; assay type: ADME, cell-free, Canis lupus familiaris
[21] = Fraction unbound in rat plasma; assay type: ADME, cell-free
[22] = Fraction unbound in human plasma; assay type: ADME, cell-free
[23] = physchem; settings: buffer, pH 7.4
[24] = target: Matrix metalloproteinase-14 (Homo sapiens, UniProt P50281)

Sequence of Cytochrome P450 3A4 (P08684 whole entry): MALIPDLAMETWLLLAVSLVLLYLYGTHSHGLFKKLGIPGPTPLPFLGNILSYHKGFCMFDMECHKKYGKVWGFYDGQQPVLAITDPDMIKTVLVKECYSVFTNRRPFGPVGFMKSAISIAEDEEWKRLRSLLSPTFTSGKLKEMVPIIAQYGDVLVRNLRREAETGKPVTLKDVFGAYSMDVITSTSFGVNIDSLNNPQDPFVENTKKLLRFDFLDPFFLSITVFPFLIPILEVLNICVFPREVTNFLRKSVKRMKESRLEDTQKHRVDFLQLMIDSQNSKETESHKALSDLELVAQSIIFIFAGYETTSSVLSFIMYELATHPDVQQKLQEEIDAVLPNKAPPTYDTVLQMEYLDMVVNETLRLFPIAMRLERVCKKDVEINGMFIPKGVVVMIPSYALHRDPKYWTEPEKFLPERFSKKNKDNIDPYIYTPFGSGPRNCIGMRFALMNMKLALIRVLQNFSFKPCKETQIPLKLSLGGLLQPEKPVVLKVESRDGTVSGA

Vd [1]: 0.5 L/kg
half-life [2]: 198 min
solubility thermodynamic at 24 h [3]: 3.1 µM (≈ 1.61 µg/mL)
clearance [4]: 9.4 mL/min/kg
SMILES: C[C@]1(CS(=O)(=O)N2CCN(c3ncc(OCc4cc(C(F)(F)F)no4)cn3)CC2)NC(=O)NC1=O

IC50 [5]: 1000 nM
SMILES: O=CN(O)[C@@H](CCCc1ncccn1)CS(=O)(=O)N1CCN(c2ccc(C(F)(F)F)cn2)CC1

SMILES: O=CN(O)[C@@H](CCc1ncccn1)CS(=O)(=O)N1CCN(c2ccc(OCC(F)(F)F)cn2)CC1
inhibition in vivo at 0.06 mg/kg/day [6]: 76%

solubility thermodynamic at 24 h [3]: 560 µM (≈ 266 µg/mL)
SMILES: C[C@]1(CS(=O)(=O)N2CCC(Oc3ccc(OCc4ncccn4)cc3)CC2)NC(=O)NC1=O

solubility thermodynamic at 24 h [3]: 32 µM (≈ 15.3 µg/mL)
SMILES: Cc1cc(COc2cnc(N3CCN(S(=O)(=O)C[C@@]4(C)NC(=O)NC4=O)CC3)nc2)n(C)n1

solubility thermodynamic at 24 h [3]: 49 µM (≈ 22.9 µg/mL)
SMILES: C[C@]1(CS(=O)(=O)N2CCN(c3ncc(OCc4cncs4)cn3)CC2)NC(=O)NC1=O

Vd [1]: 0.5 L/kg
half-life [2]: 40.2 min
solubility thermodynamic at 24 h [3]: 13 µM (≈ 6.05 µg/mL)
clearance [4]: 13.4 mL/min/kg
microsomal CLint [7]: < 2 µL/min/mg
bioavailability [8]: 37%
SMILES: Cc1cc(COc2cnc(N3CCN(S(=O)(=O)C[C@@]4(C)NC(=O)NC4=O)CC3)nc2)on1

microsomal CLint [7]: < 2 µL/min/mg
SMILES: CCc1cc(COc2cnc(N3CCN(S(=O)(=O)C[C@@]4(C)NC(=O)NC4=O)CC3)nc2)on1

Vd [1]: 1.3 L/kg
Papp B→A at 10 µM [9]: 52 ×10⁻⁶ cm/s
half-life [2]: 156 min
Vd [10]: 1.2 L/kg
bioavailability [11]: 100%
solubility thermodynamic at 24 h [3]: 11 µM (≈ 5.7 µg/mL)
clearance [4]: 6.3 mL/min/kg
half-life [12]: 636 min
bioavailability [13]: 51%
Papp A→B at 10 µM [14]: 9 ×10⁻⁶ cm/s
microsomal CLint [7]: 7 µL/min/mg
clearance [15]: 6.3 mL/min/kg
bioavailability [8]: 100%
solubility [16]: 26.5 µM (≈ 13.7 µg/mL)
clearance [17]: 1.3 mL/min/kg
half-life [18]: 156 min
hepatocyte CLint [19]: < 2 µL/min/1e6 cells
fraction unbound [20]: 0.08
fraction unbound [21]: 0.08
fraction unbound [22]: 0.06
logD [23]: 2.3
SMILES: C[C@]1(CS(=O)(=O)N2CCN(c3ncc(OCc4ccc(C(F)(F)F)o4)cn3)CC2)NC(=O)NC1=O

Vd [1]: 0.5 L/kg
half-life [2]: 13.8 min
solubility thermodynamic at 24 h [3]: 14 µM (≈ 6.9 µg/mL)
clearance [4]: 97.3 mL/min/kg
microsomal CLint [7]: 16 µL/min/mg
bioavailability [8]: 6%
SMILES: C[C@]1(CS(=O)(=O)N2CCN(c3ncc(OCc4cnc(C#N)s4)cn3)CC2)NC(=O)NC1=O

IC50 [24]: > 10000 nM
SMILES: CCCOc1ccc(OC2CCN(S(=O)(=O)C[C@@]3(C)NC(=O)NC3=O)CC2)cc1

solubility thermodynamic at 24 h [3]: < 0.8 µM
SMILES: C[C@]1(CS(=O)(=O)N2CCC(Oc3ccc(OCc4ccccc4)cc3)CC2)NC(=O)NC1=O

solubility thermodynamic at 24 h [3]: 3.1 µM (≈ 1.71 µg/mL)
IC50 [24]: 62 nM
SMILES: C[C@]1(CS(=O)(=O)N2CCC(Oc3ccc(OCc4ccc(S(C)(=O)=O)cc4)cc3)CC2)NC(=O)NC1=O

solubility thermodynamic at 24 h [3]: 1.8 µM (≈ 0.897 µg/mL)
SMILES: C[C@]1(CS(=O)(=O)N2CCC(Oc3ccc(OCc4ccc(C#N)cc4)cc3)CC2)NC(=O)NC1=O

solubility thermodynamic at 24 h [3]: 4.4 µM (≈ 2.19 µg/mL)
SMILES: C[C@]1(CS(=O)(=O)N2CCC(Oc3ccc(OCc4cccc(C#N)c4)cc3)CC2)NC(=O)NC1=O

solubility thermodynamic at 24 h [3]: 1.2 µM (≈ 0.604 µg/mL)
IC50 [24]: 1080 nM
SMILES: COc1ccc(COc2ccc(OC3CCN(S(=O)(=O)C[C@@]4(C)NC(=O)NC4=O)CC3)cc2)cc1

IC50 [24]: 7730 nM
SMILES: C[C@]1(CS(=O)(=O)N2CCC(Oc3ccc(OCc4ccc(F)cc4)cc3)CC2)NC(=O)NC1=O

solubility thermodynamic at 24 h [3]: 130 µM (≈ 61.7 µg/mL)
SMILES: C[C@]1(CS(=O)(=O)N2CCC(Oc3ccc(OCc4ccncc4)cc3)CC2)NC(=O)NC1=O
